Columns and labels:
zebrafish embryos [1] = experiment: Viability of zebrafish embryos treated with compound, in anoxia versus normoxia; assay type: in vivo; conditions: approx. 8 hpf embryos
Text: Oxygen Deprivation Environments. For all studies an anaerobic bio-bag type A environmental chamber was used according to manufacturer's instructions (Becton Dickinson). This method contains a resazurin indicator that allows one to determine when the anoxic environment is established. A second method was used to verify suspended animation results. This method involved use of a chamber perfused with 100% N2 gas (Airgas Inc.) and monitored for oxygen using a FYRITE O2 Gas Analyzer (Bacharach, Pittsburgh, Pa.) and Resazurin Indicator (Becton Dickinson). By using these anoxia-producing methods, it took approximately two hours for the oxygen concentration to reach zero. Development of embryos could continue for another 1-2.5 hours, depending on the amount of water present.
This example describes the identification of a compound that causes fish embryos subjected to an anoxic/hypoxic environment to die. In this example, fish were maintained at 28° C. in fish water or embryo media (Westerfield, 1995). Briefly, zebrafish embryos at approximately 8 hpf were pre-treated with Pronase to remove the chorion. Approximately 10 pre-treated fish were placed in each 30 mm petrie dishes in either fish water or embryo media. […] After 24 hours in anoxia, the embryos were returned to room air and viability was assessed visually. […]

zebrafish embryos [2] = experiment: Induction of and exit from stasis in zebrafish embryos under normoxic conditions; assay type: in vivo
Description: This example describes the identification of a compound that causes fish embryos to enter stasis. In this example, fish were maintained at 28° C. in fish water or embryo media. Briefly, zebrafish embryos at approximately 8 hpf were pre-treated with Pronase to remove the chorion. Approximately 10 pre-treated fish were placed in 30 mm petrie dishes in either fish water or embryo media. Dilutions of Rotenone (Sigma, St. Louis, Mo.) were added to the pre-treated fish in concentrations from approximately 10 μg/ml reduced in half-logs concentrations down to approximately 10 ng/ml. The embryos were exposed to the compound for approximately 12 hours at 28° C. under normoxic conditions. As a control, pre-treated embryos were incubated in normoxic conditions at 28° C. for the same period of time. After incubation with the compound, the embryos were assessed visually for entry into stasis. […] The Rotenone-treated embryos were removed into fresh medium and incubated at 28° C. under normoxic conditions for 24 hours. The embryos were then assessed visually for the ability to exit stasis.

| Compound | viability assessed visually after anoxia (zebrafish embryos [1]; 500 nM, approx. 2 h pre-exposure, 24 hours anoxia at 28° C., then returned to room air) | viability, treated embryos not placed in anoxia (zebrafish embryos [1]; normoxic conditions at 28° C. for 24 hours (control)) | entry into stasis assessed visually (zebrafish embryos [2]; 0.1 μg/ml, approx. 8 hpf embryos, approx. 12 hours at 28° C. under normoxic conditions) | ability to exit stasis assessed visually (zebrafish embryos [2]; embryos removed into fresh medium, 28° C., normoxic conditions for 24 hours) |
| --- | --- | --- | --- | --- |
| 1H, 5H, 11H, 15H-Xantheno[2,3,4-ij:5,6,7-i′j′]diquinolizin-18-ium, 9-[4-(chloromethyl)phenyl]-2,3,6,7,12,13,16,17-octahydro-, chloride [M[…]] | not viable | viable | – | – |
| C=C(C)[C@H]1Cc2c(ccc3c2O[C@@H]2COc4cc(OC)c(OC)cc4[C@@H]2C3=O)O1 [Rotenone] | – | – | enter stasis | reversible stasis inducer |
